Data taken from US9278068B2, “Vesicle compositions” (Sensulin LLC, priority 2011, dated 2016).

Experiments:
HeLa cells = assay: MTT assay for cytotoxicity; settings: 2 h
Protocol: The cytotoxicity of the boronic acid derivatives from Table 1 was studied by MTT assay. 150,000 HeLa cells were plated in 96 well plates on the night before the experiments. On the day of experiments, the cells were treated with the boronic acid derivatives at three different concentrations (40 nM, 80 nM, and 160 nM) for 2 h. At the end of the incubation, MTT assays (In-Vitro toxicology MTT based assay kit, Sigma Aldrich, MO) were performed according to the manufacturer's protocol.

NF-κB = NF-κB assay for inflammation (nuclear translocation of NF-κB, immunocytochemistry, PCC); settings: HeLa cells, 2 h, PCC between nuclear and cytoplasmic fraction of NF-κB
Protocol: 15,000 HeLa cells were plated in 96 well plates the night before the experiments. On the day of the experiments, the cells were treated with the boronic acids (Table 1, below) at three different concentrations (40 nM, 80 nM, and 160 nM) for 2 h. At the end of the incubation, cells were washed with phosphate buffered saline (PBS) and were fixed in 4% paraformaldehyde for 15 min and permeablized with 0.01% Triton X-100 in PBS for 10 min. The cells were washed with PBS three times. Nonspecific sites were blocked with 5% bovine serum albumin (BSA) in PBS and incubated with the Anti-NF-κB for 1 h, followed by incubation with fluorescein isothiocyanate (FITC)-labeled secondary antibody. After washing the cells at the end of the incubation, the cells were treated with 4′,6-diamidino-2-phenylindole (DAPI) for 1 min and kept at 4° C. until further analysis. Images of the cells were acquired with a Beckman-Coulter 100 automated high-throughput microscope system and analyzed using Cytseer software (Vala Sciences, CA). The co-localization of NF-κB was quantified by measuring the PCC between the nuclear and cytoplasmic fraction of the NF-κB molecule. The PCC is a measure of the overlap between the pixel intensities of the nuclear and NF-κB images of the same cell. The PCC values can range from −1 to 1. […] A negative correlation (negative PCC value) indicates an absence of nuclear translocation.

Inflammation (PCC) 40 nM (NF-κB) | Inflammation (PCC) 80 nM (NF-κB) | Inflammation (PCC) 160 nM (NF-κB) | SMILES | MTT (% Cell Survival) 40 nM (HeLa cells) [%] | MTT (% Cell Survival) 80 nM (HeLa cells) [%] | MTT (% Cell Survival) 160 nM (HeLa cells) [%]
−0.0696 | 0.07022 | 0.1748 | NC(=O)c1cccc(B(O)O)c1 [3-aminocarbonylphenylboronic acid] | 101.02 | 77.93 | 29.19
−0.1303 | 0.1523 | 0 | OB(O)/C=C/c1ccccc1 [trans-2-Phenylvinylboronic acid] | 72.90 | 99.51 | 65.87
−0.0705 | −0.204 | 0.4879 | N#Cc1ccc(B(O)O)cc1 [4-cyanophenylboronic acid] | 60.40 | 63.69 | 54.22
−0.0993 | −0.0793 | 0.1262 | O=Cc1sccc1B(O)O [2-formyl-3-thiopheneboronic acid] | 55.3376 | 40.3684 | 46.21
−0.0484 | 0.03475 | 0.1705 | OB(O)C1CC1 [cyclopropylboronic acid] | 81.55 | 107.79 | 80.01
−0.0398 | 0.03035 | −0.04954 | CCCOc1ccccc1B(O)O [2-propoxyphenylboronic acid] | 45.7459 | 42.2099 | 41.95
−0.0205 | 0.02739 | 0.1157 | CC(C)OB(CBr)OC(C)C [diisopropyl(bromomethyl)boronate] | 81.27 | 96.62 | 79.32
−0.0012 | 0.0274 | 0.08621 | O=Cc1ccoc1B(O)O [3-formylfuran-2-boronic acid] | 107.84 | 73.72 | 65.18
−0.1136 | 0.04005 | 0 | OB(O)c1cccc(O)c1 [3-hydroxyphenylboronic acid] | 104.60 | 62.75 | 89.29
−0.126 | 0.00746 | 0.1336 | Cn1c(B(O)O)cc2ccccc21 [N-methylindole-2-boronic acid] | 63.3131 | 63.6075 | 47.46
−0.0675 | 0.05743 | 0.1837 | CC(C)(C)OC(=O)n1cccc1B(O)O [N-boc-2-pyrroleboronic acid] | 60.6873 | 51.264 | 39.41
−0.1529 | −0.0404 | 0.03422 | CN(C)S(=O)(=O)c1ccccc1B(O)O [2-(N,N-dimethylsulphamoyl)benzene-boronic acid] | 74.92 | 76.38 | 47.32
−0.01 | 0.1051 | 0.2434 | N#Cc1ccc(B(O)O)s1 [5-cyanothiophene-2-boronic acid] | 80.56 | 40.00 | 44.78
−0.0231 | 0.1014 | 0 | N#Cc1cc(B(O)O)ccc1F [3-cyano-4-fluorophenylboronic acid] | 89.30 | 60.46 | 47.56

SMILES | Inflammation (PCC) 40 nM (NF-κB) | Inflammation (PCC) 80 nM (NF-κB) | Inflammation (PCC) 160 nM (NF-κB) | MTT (% Cell Survival) 40 nM (HeLa cells) [%] | MTT (% Cell Survival) 80 nM (HeLa cells) [%] | MTT (% Cell Survival) 160 nM (HeLa cells) [%]
C=C(B(O)O)c1ccccc1 [1-phenylvinylbornic acid] | −0.1145 | 0.03776 | 0 | 66.08 | 67.23 | 58.91
